# According to US9637472B2, “Substituted 6,5-fused bicyclic heteroaryl compounds” (Epizyme, Inc., priority 2011, dated 2017):
# Target: EZH2 (Homo sapiens (Human), UniProt Q15910)
# Experiment: PRC2 enzyme assay on peptide substrates
# Type: biochemical
# Conditions: PRC2 enzyme assays on peptide substrates; 4 nM enzyme, 30 min preincubation at 25° C.; read-out: EZH2 IC50
# From the text: General Materials. S-adenosylmethionine (SAM), S-adenosylhomocyteine (SAH), bicine, KCl, Tween20, dimethylsulfoxide (DMSO) and bovine skin gelatin (BSG) were purchased from Sigma-Aldrich at the highest level of purity possible. Dithiothreitol (DTT) was purchased from EMD. ^3H-SAM was purchased from American Radiolabeled Chemicals with a specific activity of 80 Ci/mmol. 384-well streptavidin Flashplates were purchased from PerkinElmer.
# Substrates. […] The sequences are listed below.
# Recombinant PRC2 Enzymes. Human PRC2 enzymes were purified as 4-component enzyme complexes co-expressed in Spodoptera frugiperda (sf9) cells using a baculovirus expression system. The subunits expressed were wild-type EZH2 (NM_004456) or EZH2 Y641F, N, H, S or C mutants generated from the wild-type EZH2 construct, EED (NM_003797), Suz12 (NM_015355) and RbAp48 (NM_005610). The EED subunit contained an N-terminal FLAG tag that was used to purify the entire 4-component complex from sf9 cell lysates.
# General Procedure for PRC2 Enzyme Assays on Peptide Substrates. The assays were all performed in a buffer consisting of 20 mM bicine (pH=7.6), 0.5 mM DTT, 0.005% BSG and 0.002% Tween20, prepared on the day of use. […] DMSO (1 μL) was added to columns 11, 12, 23, 24, rows A-H for the maximum signal control, and SAH, a known product and inhibitor of PRC2 (1 μL) was added to columns 11, 12, 23, 24, rows I-P for the minimum signal control. A cocktail (40 μL) containing the wild-type PRC2 enzyme and H3K27me0 peptide or any of the Y641 mutant enzymes and H3K27me2 peptide was added by Multidrop Combi (Thermo). The compounds were allowed to incubate with PRC2 for 30 min at 25° C., then a cocktail (10 μL) containing a mixture of non-radioactive and ^3H-SAM was added to initiate the reaction (final volume=51 μL). […] The assays were stopped by the addition of non-radioactive SAM (10 μL) to a final concentration of 600 μM, which dilutes the ^3H-SAM to a level where its incorporation into the peptide substrate is no longer detectable. 50 μL of the reaction in the 384-well polypropylene plate was then transferred to a 384-well Flashplate and the biotinylated peptides were allowed to bind to the streptavidin surface for at least 1 h before being washed three times with 0.1% Tween20 in a Biotek ELx405 plate washer. The plates were then read in a PerkinElmer TopCount platereader to measure the quantity of ^3H-labeled peptide bound to the Flashplate surface, measured as disintegrations per minute (dpm) or alternatively, referred to as counts per minute (cpm).
# Where dpm=disintegrations per minute, cmpd=signal in assay well, and min and max are the respective minimum and maximum signal controls.
# Where top and bottom are the normally allowed to float, but may be fixed at 100 or 0 respectively in a 3-parameter fit. The Hill Coefficient normally allowed to float but may also be fixed at 1 in a 3-parameter fit. Y is the % inhibition and X is the compound concentration.
# EZH2, sequence (Q15910 other isoform, or with tags, fused parts or gaps): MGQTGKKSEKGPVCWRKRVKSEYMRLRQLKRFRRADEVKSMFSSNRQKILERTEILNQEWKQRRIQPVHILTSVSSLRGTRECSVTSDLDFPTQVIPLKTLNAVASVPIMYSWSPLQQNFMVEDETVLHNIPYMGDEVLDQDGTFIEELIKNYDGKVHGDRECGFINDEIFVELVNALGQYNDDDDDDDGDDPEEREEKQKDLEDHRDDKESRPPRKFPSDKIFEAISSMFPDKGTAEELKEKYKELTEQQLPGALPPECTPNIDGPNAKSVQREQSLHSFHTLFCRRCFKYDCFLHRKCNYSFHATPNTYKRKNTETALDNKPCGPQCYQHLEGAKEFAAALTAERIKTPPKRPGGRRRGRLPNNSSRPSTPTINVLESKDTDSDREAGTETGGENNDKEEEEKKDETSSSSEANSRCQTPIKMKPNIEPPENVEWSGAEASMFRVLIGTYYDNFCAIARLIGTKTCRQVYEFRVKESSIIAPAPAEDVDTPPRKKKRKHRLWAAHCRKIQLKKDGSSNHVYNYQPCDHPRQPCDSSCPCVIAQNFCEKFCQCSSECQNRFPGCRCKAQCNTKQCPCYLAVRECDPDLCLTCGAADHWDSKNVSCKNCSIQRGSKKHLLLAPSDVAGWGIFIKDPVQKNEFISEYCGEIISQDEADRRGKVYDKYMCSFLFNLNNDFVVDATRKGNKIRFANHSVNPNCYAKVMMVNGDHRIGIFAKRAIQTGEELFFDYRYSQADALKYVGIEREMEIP
# EZH2, sequence (O75530 whole entry partner): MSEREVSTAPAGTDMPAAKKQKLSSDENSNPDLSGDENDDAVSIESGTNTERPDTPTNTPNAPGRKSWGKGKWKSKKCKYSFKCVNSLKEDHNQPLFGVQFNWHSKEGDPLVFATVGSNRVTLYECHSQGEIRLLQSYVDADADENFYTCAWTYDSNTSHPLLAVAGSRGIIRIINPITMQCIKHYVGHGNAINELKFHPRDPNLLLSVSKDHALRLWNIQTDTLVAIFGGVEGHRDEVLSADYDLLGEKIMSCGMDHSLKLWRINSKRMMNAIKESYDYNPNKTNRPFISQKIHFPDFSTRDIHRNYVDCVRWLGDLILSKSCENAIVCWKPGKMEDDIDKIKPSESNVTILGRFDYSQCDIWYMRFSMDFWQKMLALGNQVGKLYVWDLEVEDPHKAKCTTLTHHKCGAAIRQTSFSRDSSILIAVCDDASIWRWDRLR
# EZH2, sequence (Q15022 whole entry partner): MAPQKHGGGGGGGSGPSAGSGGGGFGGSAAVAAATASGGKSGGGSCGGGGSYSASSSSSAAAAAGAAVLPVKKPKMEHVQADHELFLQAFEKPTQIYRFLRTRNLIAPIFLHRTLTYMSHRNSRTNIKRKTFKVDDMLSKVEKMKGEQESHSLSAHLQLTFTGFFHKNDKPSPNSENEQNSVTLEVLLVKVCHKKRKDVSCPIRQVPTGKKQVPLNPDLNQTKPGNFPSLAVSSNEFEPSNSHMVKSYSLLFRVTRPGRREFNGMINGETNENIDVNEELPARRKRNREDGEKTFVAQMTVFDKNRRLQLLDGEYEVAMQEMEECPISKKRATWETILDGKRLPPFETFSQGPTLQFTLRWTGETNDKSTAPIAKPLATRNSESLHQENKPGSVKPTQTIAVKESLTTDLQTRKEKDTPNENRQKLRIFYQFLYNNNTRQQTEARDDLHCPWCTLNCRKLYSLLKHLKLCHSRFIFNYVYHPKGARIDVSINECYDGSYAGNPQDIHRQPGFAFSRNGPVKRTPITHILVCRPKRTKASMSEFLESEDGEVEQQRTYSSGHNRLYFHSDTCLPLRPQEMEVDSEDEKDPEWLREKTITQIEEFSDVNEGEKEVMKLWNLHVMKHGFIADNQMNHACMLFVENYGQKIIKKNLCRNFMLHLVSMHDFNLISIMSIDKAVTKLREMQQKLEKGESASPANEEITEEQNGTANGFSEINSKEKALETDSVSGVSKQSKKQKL
# EZH2, sequence (Q09028 whole entry partner): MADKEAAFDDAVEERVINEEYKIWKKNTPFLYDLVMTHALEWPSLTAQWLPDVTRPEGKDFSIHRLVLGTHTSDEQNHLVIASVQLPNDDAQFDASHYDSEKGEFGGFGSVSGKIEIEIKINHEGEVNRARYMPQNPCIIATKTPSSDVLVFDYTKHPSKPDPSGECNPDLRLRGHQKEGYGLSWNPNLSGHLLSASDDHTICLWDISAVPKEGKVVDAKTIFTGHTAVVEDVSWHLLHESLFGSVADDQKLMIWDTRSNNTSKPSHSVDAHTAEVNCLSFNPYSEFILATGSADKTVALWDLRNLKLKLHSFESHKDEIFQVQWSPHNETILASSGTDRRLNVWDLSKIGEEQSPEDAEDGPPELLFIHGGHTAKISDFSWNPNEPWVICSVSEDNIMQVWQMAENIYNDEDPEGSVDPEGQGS
row,Compound,IC50
1,Cc1cc(C)c(CNC(=O)c2cc(C3=CCN(C(=O)CO)CC3)cc3c2cnn3C2CCCC2)c(=O)[nH]1 [Compound D-54],300 to 1000 nM
2,Cc1cc(C)c(CNC(=O)c2cc(N3CCC(N(C)C)CC3)nc3c2cnn3C(C)C)c(=O)[nH]1 [Compound B-86],1000 to 3000 nM
3,"CC(=O)N1CC=C(c2cc(C(=O)NCc3c(C)cc(C)[nH]c3=O)c3cnn(C4CCCC4)c3c2)CC1 [Compound D-4, 6-(1-acetyl-1,2,3,6-tetrahydropyridin-4-yl)-1-cyclopentyl-N-((4,6-dimethyl-2-oxo-1,2-dihydropyridin-3-yl)methyl)-1H-indazole-4-carboxamide]",< 300 nM
4,Cc1cc(C)c(CNC(=O)c2cc(-c3ccc(OCCCN(C)C)cc3)cc3c2cnn3C2CCCC2)c(=O)[nH]1 [Compound C-35],< 300 nM
5,Cc1cc(C)c(CNC(=O)c2ccnc3c2cnn3C(C)C)c(=O)[nH]1 [Compound B-127],3000 to 10000 nM
6,"Cc1cc(C)c(CNC(=O)c2cc(-c3ccc(CN)cc3)nc3c2cnn3C(C)C)c(=O)[nH]1 [Compound A-14, 6-(4-(aminomethyl)phenyl)-N-((4,6-dimethyl-2-oxo-1,2-dihydropyridin-3-yl)methyl)-1-isopropyl-1H-pyrazolo[3,4-b]pyridine-4-carboxamide]",< 300 nM
7,Cc1cc(C)c(CNC(=O)c2cc(-c3cnc(N)nc3)cc3c2cnn3C2CCCC2)c(=O)[nH]1 [Compound C-30],< 300 nM
8,"Cc1cc(C)c(CNC(=O)c2cc(C3=CCN(C(=O)C4CCNCC4)CC3)nc3c2cnn3C(C)C)c(=O)[nH]1 [Compound B-20, N-((4,6-dimethyl-2-oxo-1,2-dihydropyridin-3-yl)methyl)-1-isopropyl-6-(1-(piperidine-4-carbonyl)-1,2,3,6-tetrahydropyridin-4-yl)-1H-pyrazolo[3,4-b]pyridine-4-carboxamide]",< 300 nM
9,Cc1cc(C)c(CNC(=O)c2cc(-c3ccc(CN4CCOCC4)cc3)cc3c2ccn3C2CCCC2)c(=O)[nH]1 [Compound E-2],< 300 nM
10,Cc1cc(C)c(CNC(=O)c2cc(C3CCN(C(=O)C(O)CN)CC3)nc3c2cnn3C(C)C)c(=O)[nH]1 (stereo not drawn) [Compound B-96],1000 to 3000 nM
11,"Cc1cc(C)c(CNC(=O)c2c(Cl)c(C3=CC(C)(C)NC(C)(C)C3)nc3c2cnn3C(C)C)c(=O)[nH]1 [Compound B-12, 5-chloro-N-((4,6-dimethyl-2-oxo-1,2-dihydropyridin-3-yl)methyl)-1-isopropyl-6-(2,2,6,6-tetramethyl-1,2,3,6-tetrahydropyridin-4-yl)-1H-pyrazolo[3,4-b]pyridine-4-carboxamide]",1000 to 3000 nM
12,"Cc1cc(C)c(CNC(=O)c2cc(-c3cccc(OCCCN(C)C)c3)cc3c2cnn3C2CCCC2)c(=O)[nH]1 [Compound C-11, 1-cyclopentyl-N-((4,6-dimethyl-2-oxo-1,2-dihydropyridin-3-yl)methyl)-6-(3-(3-(dimethylamino)propoxy)phenyl)-1H-indazole-4-carboxamide]",< 300 nM
13,Cc1cc(C)c(CNC(=O)c2cc(-c3ccc(C(=O)O)cc3)nc3c2cnn3C(C)C)c(=O)[nH]1 [Compound A-53],1000 to 3000 nM
14,Cc1[nH]c(=O)c(CNC(=O)c2cc(C3=CC(C)(C)NC(C)(C)C3)nc3c2cnn3C(C)C)c(C)c1Cc1ccccc1 [Compound B-143],3000 to 10000 nM
15,Cc1cc(C)c(CNC(=O)c2cc(-c3cccc(CN)c3)nc3c2cnn3C(C)C)c(=O)[nH]1 [Compound A-32],300 to 1000 nM
16,Cc1cc(C)c(CNC(=O)c2cc(C3=CC(C)(C)NC(C)(C)C3)nc3c2cnn3Cc2ccccc2)c(=O)[nH]1 [Compound B-151],10000 to 50000 nM
17,Cc1cc(C)c(CNC(=O)c2cc(-c3ccnc(N4CCN(C(=O)OC(C)(C)C)CC4)c3)nc3c2cnn3C(C)C)c(=O)[nH]1 [Compound A-27],300 to 1000 nM
18,Cc1cc(C)c(CNC(=O)c2cc(N3CCC(=O)CC3)nc3c2cnn3C(C)C)c(=O)[nH]1 [Compound B-95],1000 to 3000 nM

row,Compound,IC50
1,"Cc1cc(C)c(CNC(=O)c2cc(C3=CCN(C(=O)C4CCCN(C)C4)CC3)nc3c2cnn3C(C)C)c(=O)[nH]1 (stereo not drawn) [Compound B-32, N-((4,6-dimethyl-2-oxo-1,2-dihydropyridin-3-yl)methyl)-1-isopropyl-6-(1-(1-methylpiperidine-3-carbonyl)-1,2,3,6-tetrahydropyridin-4-yl)-1H-pyrazolo[3,4-b]pyridine-4-carboxamide]",< 300 nM
2,"CCc1nn(C(C)C)c2nc(C3=CC(C)(C)NC(C)(C)C3)cc(C(=O)NCc3c(C)cc(C)[nH]c3=O)c12 [Compound B-26, N-((4,6-dimethyl-2-oxo-1,2-dihydropyridin-3-yl)methyl)-3-ethyl-1-isopropyl-6-(2,2,6,6-tetramethyl-1,2,3,6-tetrahydropyridin-4-yl)-1H-pyrazolo[3,4-b]pyridine-4-carboxamide]",300 to 1000 nM
3,"Cc1cc(C)c(CNC(=O)c2cc(OC3CCN(C)CC3)nc3c2cnn3C(C)C)c(=O)[nH]1 [Compound B-6, N-((4,6-dimethyl-2-oxo-1,2-dihydropyridin-3-yl)methyl)-1-isopropyl-6-((1-methylpiperidin-4-yl)oxy)-1H-pyrazolo[3,4-b]pyridine-4-carboxamide]",300 to 1000 nM
4,C=CCn1ncc2c(C(=O)NCc3c(C)cc(C)[nH]c3=O)cc(C3=CC(C)(C)NC(C)(C)C3)nc21 [Compound B-155],10000 to 50000 nM
5,Cc1cc(C)c(CNC(=O)c2cc(C3CCN(CCCN(C)C)CC3)cc3c2cnn3C2CCCC2)c(=O)[nH]1 [Compound D-30],< 300 nM
6,"Cc1cc(C)c(CNC(=O)c2cc(C(F)(F)F)cc3c2cnn3C2CCCC2)c(=O)[nH]1 [Compound D-11, 1-cyclopentyl-N-((4,6-dimethyl-2-oxo-1,2-dihydropyridin-3-yl)methyl)-6-(trifluoromethyl)-1H-indazole-4-carboxamide]",300 to 1000 nM
7,Cc1cc(COCCCN(C)C)c(CNC(=O)c2cccc3c2cnn3C2CCCC2)c(=O)[nH]1 [Compound D-86],3000 to 10000 nM
8,"Cc1cc(C)c(CNC(=O)c2cc(CO)cc3c2cnn3C2CCCC2)c(=O)[nH]1 [Compound D-8, 1-cyclopentyl-N-((4,6-dimethyl-2-oxo-1,2-dihydropyridin-3-yl)methyl)-6-(hydroxymethyl)-1H-indazole-4-carboxamide]",300 to 1000 nM
9,Cc1cc(C)c(CNC(=O)c2cc(-c3cccc(C(=O)O)c3)nc3c2cnn3C(C)C)c(=O)[nH]1 [Compound A-67],1000 to 3000 nM
10,Cc1cc(C)c(CNC(=O)c2cc(C(F)(F)F)cc3c2cnn3C2CCN(C(=O)C(C)(C)C)CC2)c(=O)[nH]1 [Compound D-23],< 300 nM
11,COc1cc(C(=O)NCc2c(C)cc(C)[nH]c2=O)c2cnn(C(C)C)c2n1 [Compound B-118],1000 to 3000 nM
12,CNCCN(C)Cc1cccc(-c2cc(C(=O)NCc3c(C)cc(C)[nH]c3=O)c3c(n2)N(C(C)C)NC3)c1 [Compound A-58],1000 to 3000 nM
13,Cc1[nH]c(=O)c(CNC(=O)c2cc(C3=CC(C)(C)NC(C)(C)C3)nc3c2cnn3C(C)C)c(C)c1C [Compound B-139],3000 to 10000 nM
14,Cc1cc(C)c(CNC(=O)c2cc(C3CCN(CCO)CC3)cc3c2cnn3C2CCCC2)c(=O)[nH]1 [Compound D-97],< 300 nM
15,Cc1cc(C)c(CNC(=O)c2cc(-c3ccc(CN(C)CCN4CCCC4)cc3)nc3c2cnn3C(C)C)c(=O)[nH]1 [Compound A-21],300 to 1000 nM
16,Cc1cc(C)c(CNC(=O)c2cc(N3CCNCC3)nc3c2cnn3C(C)C)c(=O)[nH]1 [Compound B-92],1000 to 3000 nM
17,"Cc1cc(C)c(CNC(=O)c2cc(-c3ccc(CN4CCOCC4)cc3)nc3c2cnn3C2CCCC2)c(=O)[nH]1 [Compound A-1, 1-cyclopentyl-N-((4,6-dimethyl-2-oxo-1,2-dihydropyridin-3-yl)methyl)-6-(4-(morpholinomethyl)phenyl)-1H-pyrazolo[3,4-b]pyridine-4-carboxamide]",< 300 nM
18,"Cc1cc(C)c(CNC(=O)c2cc(C3CCN(C4CCN(S(C)(=O)=O)CC4)CC3)nc3c2cnn3C(C)C)c(=O)[nH]1 [Compound B-35, N-((4,6-dimethyl-2-oxo-1,2-dihydropyridin-3-yl)methyl)-1-isopropyl-6-(1′-(methylsulfonyl)-[1,4′-bipiperidin]-4-yl)-1H-pyrazolo[3,4-b]pyridine-4-carboxamide]",< 300 nM
